According to patent US12595230B2, “Substituted 6,7-dihydro-5H-benzo[7]annulene compounds and their derivatives, processes for their preparation and therapeutic uses thereof” (Sanofi, priority 2020, dated 2026):

Molecular target: T1, ERα (Homo sapiens, UniProt P03372)
T1 construct: host or cells: MCF7
T1 sequence (P03372 1-595): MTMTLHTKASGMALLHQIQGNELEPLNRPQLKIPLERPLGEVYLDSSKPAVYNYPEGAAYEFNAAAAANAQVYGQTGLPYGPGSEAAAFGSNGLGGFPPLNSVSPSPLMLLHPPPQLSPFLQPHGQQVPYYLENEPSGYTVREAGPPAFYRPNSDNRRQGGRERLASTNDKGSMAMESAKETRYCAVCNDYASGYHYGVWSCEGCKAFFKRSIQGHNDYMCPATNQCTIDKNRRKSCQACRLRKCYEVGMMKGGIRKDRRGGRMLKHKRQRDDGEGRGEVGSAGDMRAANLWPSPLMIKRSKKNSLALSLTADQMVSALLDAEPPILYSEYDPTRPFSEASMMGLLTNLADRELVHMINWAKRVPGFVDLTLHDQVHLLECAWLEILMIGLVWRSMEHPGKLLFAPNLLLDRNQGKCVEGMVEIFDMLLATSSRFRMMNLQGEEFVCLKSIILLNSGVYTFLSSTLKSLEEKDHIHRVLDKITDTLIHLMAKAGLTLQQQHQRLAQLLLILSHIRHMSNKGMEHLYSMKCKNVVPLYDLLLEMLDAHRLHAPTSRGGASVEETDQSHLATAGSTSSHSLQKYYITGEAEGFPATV
Assay: Estrogen receptor degradation activity: breast cancer cell ERα in cell western assay (MCF7 cells)
Type: cell-based
Conditions: for % Degradation At 0.3 μM: 4 hours, relative to fulvestrant 0.1 μM positive control; for DC50: 4 hours post compound addition, concentration which degrades 50% of the estrogen receptor, read-out: Degradation IC50
Method in brief: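 Compounds were applied to MCF7 cells in stripped-serum, phenol red-free medium for 4 h at final 0.3–0.0000018 μM, with fulvestrant (0.1 μM) as control. Value: IC50 (nM) for 50% ERα degradation.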

Row | SMILES | % Degradation At 0.3 μM [%] | DC50 [nM]
1 | O=C(O)c1ccc2c(c1)CCCC(c1ccc(Cl)cc1Cl)=C2c1ccc(CC2CN(CCCF)C2)c(F)c1 [Example 239, 8-(2,4-dichlorophenyl)-9-(3-fluoro-4-((1-(3-fluoropropyl)azetidin-3-yl)methyl)phenyl)-6,7-dihydro-5H-benzo[7]annulene-3-carboxylic acid] | 93 | 0.4
2 | O=C(O)c1ccc2c(c1)CCCC(c1ccc(Cl)cc1Cl)=C2c1ccc(CC2(O)CN(CCCF)C2)cc1 [Example 233, 8-(2,4-dichlorophenyl)-9-(4-((1-(3-fluoropropyl)-3-hydroxyazetidin-3-yl)methyl)phenyl)-6,7-dihydro-5H-benzo[7]annulene-3-carboxylic acid] | 85 | 0.5
3 | CC1CCc2cc(C(=O)O)ccc2C(c2ccc(CC3CN(CCCF)C3)cc2)=C1c1ccc(Cl)cc1Cl (single isomer, unassigned) [Example 302, 8-(2,4-dichlorophenyl)-9-(4-((1-(3-fluoropropyl)azetidin-3-yl)methyl)phenyl)-7-methyl-6,7-dihydro-5H-benzo[7]annulene-3-carboxylic acid] | 90 | 0.6
4 | O=C(O)c1ccc2c(c1)CCCC(c1ccc(F)cc1Cl)=C2c1ccc(CC2(F)CN(CCCF)C2)cc1 [Example 242, 8-(2-chloro-4-fluorophenyl)-9-(4-((3-fluoro-1-(3-fluoropropyl)azetidin-3-yl)methyl)phenyl)-6,7-dihydro-5H-benzo[7]annulene-3-carboxylic acid] | 78 | 1.7
5 | CC(C)C1CCc2cc(C(=O)O)ccc2C(c2ccc(CC3CN(CCCF)C3)cc2)=C1c1ccc(Cl)cc1Cl (single isomer, unassigned) [Example 321, 8-(2,4-dichlorophenyl)-9-(4-((1-(3-fluoropropyl)azetidin-3-yl)methyl)phenyl)-7-isopropyl-6,7-dihydro-5H-benzo[7]annulene-3-carboxylic acid] | 88 | 0.5
6 | Cc1ccc(C2=C(c3ccc(CC4CN(CCCF)C4)cc3)c3cc(F)c(O)c(F)c3CCC2)c(Cl)c1 [Example 265, 8-(2-chloro-4-methylphenyl)-2,4-difluoro-9-(4-((1-(3-fluoropropyl)azetidin-3-yl)methyl)phenyl)-6,7-dihydro-5H-benzo[7]annulen-3-ol] | 83 | 0.4
7 | CC(C)C1CCc2cc(C(=O)O)ccc2C(c2ccc(CC3CN(CCCF)C3)cc2)=C1c1ccc(Cl)cc1Cl (single isomer, unassigned) [Example 322, 8-(2,4-dichlorophenyl)-9-(4-((1-(3-fluoropropyl)azetidin-3-yl)methyl)phenyl)-7-isopropyl-6,7-dihydro-5H-benzo[7]annulene-3-carboxylic acid] | 87 | 0.6
8 | O=C(O)c1ccc2c(c1)SCC(c1ccc(F)cc1F)=C2c1ccc(CC2CN(CCCF)C2)cc1 [Example 314, 3-(2,4-difluorophenyl)-4-(4-((1-(3-fluoropropyl)azetidin-3-yl)methyl)phenyl)-2H-thiochromene-7-carboxylic acid] | 87 | 3
9 | CC1CCc2cc(C(=O)O)ccc2C(c2ccc(CC3CN(CCCF)C3)cc2)=C1c1ccc(Cl)cc1Cl (single isomer, unassigned) [Example 303, 8-(2,4-dichlorophenyl)-9-(4-((1-(3-fluoropropyl)azetidin-3-yl)methyl)phenyl)-7-methyl-6,7-dihydro-5H-benzo[7]annulene-3-carboxylic acid] | 90 | 0.4
10 | CC1CCc2cc(C(=O)O)ccc2C(c2ccc(CC3CN(CCCF)C3)cc2)=C1c1ccc(Cl)cc1 (single isomer, unassigned) [Example 328, 18-(4-chlorophenyl)-9-(4-((1-(3-fluoropropyl)azetidin-3-yl)methyl)phenyl)-7-methyl-6,7-dihydro-5H-benzo[7]annulene-3-carboxylic acid] | 88 | 0.4
11 | CCC1CCc2cc(C(=O)O)ccc2C(c2ccc(CC3CN(CCCF)C3)cc2)=C1c1ccc(Cl)cc1 (single isomer, unassigned) [Example 330, 8-(4-chlorophenyl)-7-ethyl-9-(4-((1-(3-fluoropropyl)azetidin-3-yl)methyl)phenyl)-6,7-dihydro-5H-benzo[7]annulene-3-carboxylic acid] | 91 | 7
12 | N#Cc1c(C(=O)O)ccc2c1CCCC(c1ccc(Cl)cc1Cl)=C2c1ccc(CC2CN(CCCF)C2)cc1.O=CO [Example 246, 4-cyano-8-(2,4-dichlorophenyl)-9-(4-((1-(3-fluoropropyl)azetidin-3-yl)methyl)phenyl)-6,7-dihydro-5H-benzo[7]annulene-3-carboxylic acid, formic acid] | 73 | 31.6
13 | Cc1c(C2=C(c3ccc(CC4CN(CCC(F)F)C4)cc3)c3ccc(C(=O)O)cc3CCC2)ccc(Cl)c1F [Example 292, 8-(4-chloro-3-fluoro-2-methylphenyl)-9-(4-((1-(3,3-difluoropropyl)azetidin-3-yl)methyl)phenyl)-6,7-dihydro-5H-benzo[7]annulene-3-carboxylic acid] | 93 | 0.4
14 | Cc1cccc(C2=C(c3ccc(CC4CN(CCC(F)F)C4)cc3)c3ccc(C(=O)O)cc3CCC2)c1Cl [Example 277, 8-(2-chloro-3-methylphenyl)-9-(4-((1-(3,3-difluoropropyl)azetidin-3-yl)methyl)phenyl)-6,7-dihydro-5H-benzo[7]annulene-3-carboxylic acid] | 82 | 0.3

Next, values leading:

Row | % Degradation At 0.3 μM [%] | DC50 [nM] | SMILES
15 | 93 | 0.4 | Cc1c(F)cccc1C1=C(c2ccc(CC3CN(CCCF)C3)cc2)c2ccc(C(=O)O)cc2CCC1 [Example 28, 8-(3-fluoro-2-methylphenyl)-9-(4-((1-(3-fluoropropyl)azetidin-3-yl)methyl)phenyl)-6,7-dihydro-5H-benzo[7]annulene-3-carboxylic acid]
16 | 92 | 1.1 | Cl.O=C(O)c1ccc2c(c1)CCCC(c1ccc(Cl)c(Cl)c1)=C2c1ccc(CC2CN(CCCF)C2)cc1 [Example 207, 8-(3,4-dichlorophenyl)-9-(4-((1-(3-fluoropropyl)azetidin-3-yl)methyl)phenyl)-6,7-dihydro-5H-benzo[7]annulene-3-carboxylic acid hydrochloride]
17 | 91 | 0.4 | COc1c(Cl)cccc1C1=C(c2ccc(CC3CN(CCCF)C3)cc2)c2ccc(C(=O)O)cc2CCC1 [Example 334, 8-(3-chloro-2-methoxyphenyl)-9-(4-((1-(3-fluoropropyl)azetidin-3-yl)methyl)phenyl)-6,7-dihydro-5H-benzo[7]annulene-3-carboxylic acid]
18 | 90 | 0.3 | Cc1cc(C(F)(F)F)ccc1C1=C(c2ccc(CC3CN(CCCF)C3)cc2)c2ccc(C(=O)O)cc2CCC1 [Example 17, 9-(4-((1-(3-fluoropropyl)azetidin-3-yl)methyl)phenyl)-8-(2-methyl-4-(trifluoromethyl)phenyl)-6,7-dihydro-5H-benzo[7]annulene-3-carboxylic acid]
19 | 89 | 0.5 | CC1CCc2cc(C(=O)O)ccc2C(c2ccc(CC3CN(CCCF)C3)cc2)=C1c1ccc(F)cc1 (racemic) [Example 325, 8-(4-fluorophenyl)-9-(4-((1-(3-fluoropropyl)azetidin-3-yl)methyl)phenyl)-7-methyl-6,7-dihydro-5H-benzo[7]annulene-3-carboxylic acid]
20 | 83 | 0.4 | Cl.O=C(O)c1ccc2c(c1)CCCC(c1ccccc1)=C2c1ccc(CC2CN(CCCF)C2)cc1 [Example 1, 9-(4-((1-(3-Fluoropropyl)azetidin-3-yl)methyl)phenyl)-8-phenyl-6,7-dihydro-5H-benzo[7]annulene-3-carboxylic Acid Hydrochloride]
21 | 86 | 0.5 | Cl.O=C(O)c1ccc2c(c1)CCCC(C1=CCC(F)(F)CC1)=C2c1ccc(CC2CN(CCCF)C2)cc1 [Example 5, 8-(4,4-difluorocyclohex-1-en-1-yl)-9-(4-((1-(3-fluoropropyl)azetidin-3-yl)methyl)phenyl)-6,7-dihydro-5H-benzo[7]annulene-3-carboxylic acid]
22 | 92 | 0.3 | Cl.O=C(O)c1ccc2c(c1)CCCC(c1cccc(F)c1Cl)=C2c1ccc(CC2CN(CCCF)C2)cc1 [Example 9, 8-(2-chloro-3-fluorophenyl)-9-(4-((1-(3-fluoropropyl)azetidin-3-yl)methyl)phenyl)-6,7-dihydro-5H-benzo[7]annulene-3-carboxylic acid]
23 | 89 | 0.2 | Cc1cc(F)ccc1C1=C(c2ccc(CC3CN(CCCF)C3)cc2)c2ccc(C(=O)O)cc2CCC1 [Example 33, 8-(4-fluoro-2-methylphenyl)-9-(4-((1-(3-fluoropropyl)azetidin-3-yl)methyl)phenyl)-6,7-dihydro-5H-benzo[7]annulene-3-carboxylic acid]
